Data on 3 molecules can be found in patent publication US12077503B2, “Substituted cyclic amides and their use as herbicides” (FMC CORPORATION, priority 2015, dated 2024).

Type in all cases: in vivo
The test system of assay [1] is ragweed (common ragweed, Ambrosia elatior). The experiment in a line: Test A postemergence. The note with it: Ambrosia artemisiifolia, post-emergence, 240 h, 125 g ai/ha, postemergence, visual injury rating after approximately 10 d; read-out: Ragweed plant response rating (0 to 100 scale, 0 no effect, 100 complete control). In a few lines:
(§1)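 Visual injury, scored on a 0–100 scale relative to untreated controls, was recorded about 10 d after application. Treatments were a preemergence soil spray over planted seeds or a postemergence spray on plants at the one- to two-leaf stage, 2 to 10 cm tall, all in loam soil–sand blend in the greenhouse.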

Assay [2] relates to barnyardgrass (Echinochloa crus-galli). The assay can be described thus: Test A postemergence. The note with it: Echinochloa crus-galli, post-emergence, 240 h, 125 g ai/ha, postemergence, visual injury rating after approximately 10 d; read-out: Barnyardgrass plant response rating (0 to 100 scale, 0 no effect, 100 complete control). In a few lines:
as §1

Assay [3] relates to blackgrass (Alopecurus myosuroides). The assay can be described thus: Test A postemergence. To be noted: Alopecurus myosuroides, post-emergence, 240 h, 125 g ai/ha, postemergence, visual injury rating after approximately 10 d; read-out: Blackgrass plant response rating (0 to 100 scale, 0 no effect, 100 complete control). In short, it runs like this: as §1
The subject of assay [4] is giant foxtail (Setaria faberii). The experiment in a line: Test A postemergence. To be noted: Setaria faberi, post-emergence, 240 h, 125 g ai/ha, postemergence, visual injury rating after approximately 10 d; read-out: Foxtail, Giant plant response rating (0 to 100 scale, 0 no effect, 100 complete control). In short, it runs like this:
as §1

Assay [5] concerns corn (Zea mays). The experiment in a line: Test A postemergence. The note with it: Zea mays, post-emergence, 240 h, 125 g ai/ha, postemergence, visual injury rating after approximately 10 d; read-out: Corn plant response rating (0 to 100 scale, 0 no effect, 100 complete control). In a few lines: as §1
Assay [6] has as its system Galium (catchweed bedstraw, Galium aparine). The assay can be described thus: Test A postemergence. To be noted: Galium, post-emergence, 240 h, 125 g ai/ha, postemergence, visual injury rating after approximately 10 d; read-out: Galium plant response rating (0 to 100 scale, 0 no effect, 100 complete control). In short, it runs like this:
as §1

Assay [7] relates to Kochia (Kochia scoparia). The assay can be described thus: Test A postemergence. To be noted: Bassia scoparia, post-emergence, 240 h, 125 g ai/ha, postemergence, visual injury rating after approximately 10 d; read-out: Kochia plant response rating (0 to 100 scale, 0 no effect, 100 complete control). In a few lines: as §1
Assay [8] deals with pigweed (Amaranthus retroflexus). The experiment in a line: Test A postemergence. The note with it: Amaranthus retroflexus, post-emergence, 240 h, 125 g ai/ha, postemergence, visual injury rating after approximately 10 d; read-out: Pigweed plant response rating (0 to 100 scale, 0 no effect, 100 complete control). In short, it runs like this:
as §1

Assay [9] relates to ryegrass, Italian (Italian ryegrass, Lolium multiflorum). The assay can be described thus: Test A postemergence. To be noted: Lolium multiflorum, post-emergence, 240 h, 125 g ai/ha, postemergence, visual injury rating after approximately 10 d; read-out: Ryegrass, Italian plant response rating (0 to 100 scale, 0 no effect, 100 complete control). In short, it runs like this: as §1

Assay [10] has as its system wheat (Triticum aestivum). The experiment in a line: Test A postemergence. The note with it: Triticum aestivum, post-emergence, 240 h, 125 g ai/ha, postemergence, visual injury rating after approximately 10 d; read-out: Wheat plant response rating (0 to 100 scale, 0 no effect, 100 complete control). In a few lines:
as §1

Assay [11] has as its system giant foxtail (Setaria faberii). The experiment in a line: Test A preemergence. To be noted: Setaria faberi, pre-emergence, 240 h; for pest or weed control at 125 g/ha: 125 g ai/ha, preemergence, 0 to 100 scale where 0 is no effect and 100 is complete control, read-out: Foxtail, Giant plant response rating; for pest or weed control at 500 g/ha: 500 g ai/ha, Preemergence, visual injury vs untreated controls after approximately 10 d, read-out: Foxtail, Giant plant response rating (0 to 100 scale where 0 is no effect and 100 is complete control). In short, it runs like this:
as §1

In assay [12] the test system is barnyardgrass (Echinochloa crus-galli). The experiment in a line: Test B flooded paddy test. To be noted: Echinochloa crus-galli, Flood, 250 g ai/ha; scale of 0 to 100 where 0 is no effect and 100 is complete control; read-out: Barnyardgrass plant response rating. In short, it runs like this:
(§2)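 Response scored visually against untreated controls, 0 = no effect and 100 = complete control, 13–15 d after treatment in the greenhouse. Compounds added to paddy water held 3 cm above soil surface. Treatment given at 2-leaf stage.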

For assay [13], the system named is rice (Oryra sativa). The assay can be described thus: Test B flooded paddy test. The note with it: Oryza sativa, Flood, 250 g ai/ha; scale of 0 to 100 where 0 is no effect and 100 is complete control; read-out: Rice plant response rating. In short, it runs like this:
as §2

Assay [14] relates to ducksalad (Heteranthera limosa). The experiment in a line: Test B flooded paddy test. The note with it: Heteranthera limosa, Flood, 250 g ai/ha; scale of 0 to 100 where 0 is no effect and 100 is complete control; read-out: Ducksalad plant response rating. In short, it runs like this:
as §2

Assay [15] deals with sedge, umbrella (small-flower umbrella sedge, Cyperus difformis). The assay can be described thus: Test B flooded paddy test. To be noted: Cyperus difformis, Flood, 250 g ai/ha; scale of 0 to 100 where 0 is no effect and 100 is complete control; read-out: Sedge, Umbrella plant response rating. In a few lines:
as §2

For the molecule `COc1ccc([C@H]2CN(C)C(=O)[C@@H]2C(=O)Nc2cccc(F)c2F)cc1OC` [Compound 853], the pest or weed control at 125 g/ha in assay [1] was determined as 0%; in assay [2], 90%; in assay [3], 20%; in assay [4], 90%; in assay [6], 0%; in [7], 0%. Further, the figures for the pest or weed control at 125 g/ha in assay [8], in assay [9] and in assay [11] were 0%, 0% and 90%, respectively. The plant injury at 125 g/ha in [5] and in assay [10] was 0% throughout. The pest or weed control at 500 g/ha in assay [11] came out at 100%. The pest or weed control at 250 g/ha came out at 70% in [12], 20% in assay [13], 40% in assay [14] and 0% in assay [15].

With `CN1C[C@H](c2cc(F)c(C(F)(F)F)c(F)c2)[C@@H](C(=O)Nc2ccccc2S(C)(=O)=O)C1=O` [Compound 900], the pest or weed control at 125 g/ha in [1] is 10%; in [2], 80%; in assay [3] it was 40%; in assay [4], 80%; in assay [6], 20%; in assay [7] it was 30%. In addition, the pest or weed control at 125 g/ha in assay [8] came to 50%; in assay [9], 40%; in [11], 90%. Moreover, the plant injury at 125 g/ha in [5] and in [10] was 50% each time. For the same molecule, the pest or weed control at 500 g/ha in [11] is 90%. For the same molecule, the pest or weed control at 250 g/ha in [12] is 70%; in assay [13] it was 0%; in assay [14], 40%; in assay [15], 0%.

In the case of `COc1c(F)ccc([C@H]2CNC(=O)[C@@H]2C(=O)Nc2ccc(F)c(F)c2F)c1Cl` [Compound 890], the pest or weed control at 125 g/ha in [1] was 0%; in [2], 90%; in assay [3], 20%; in [4] it was 70%; in assay [6], 50%; in [7], 60%. Moreover, the pest or weed control at 125 g/ha was determined as 0% in assay [8], 0% in [9] and 90% in [11]. Further, the plant injury at 125 g/ha in assay [5] was determined as 20%; in [10] it was 0%. Further, in assay [11], the pest or weed control at 500 g/ha is 90%. In addition, the pest or weed control at 250 g/ha is 60% in [12], 0% in assay [13], 90% in assay [14] and 0% in assay [15].
